# Data from US20240197828A1, “Chimeric molecule to treat sepsis and other inflammatory conditions” (THE FEINSTEIN INSTITUTES FOR MEDICAL RESEARCH, priority 2022, published 2024).
# pKd: −log10 of the molar value. Residues, ends and D or L forms follow the SMILES beside them.
# Target: T1, αvβ3-integrin (Mus musculus, UniProt O54890+P43406)
# T1 construct: purchased R&D Systems 7889-AV-050
# T1 sequence (P43406 31-988 limits assumed): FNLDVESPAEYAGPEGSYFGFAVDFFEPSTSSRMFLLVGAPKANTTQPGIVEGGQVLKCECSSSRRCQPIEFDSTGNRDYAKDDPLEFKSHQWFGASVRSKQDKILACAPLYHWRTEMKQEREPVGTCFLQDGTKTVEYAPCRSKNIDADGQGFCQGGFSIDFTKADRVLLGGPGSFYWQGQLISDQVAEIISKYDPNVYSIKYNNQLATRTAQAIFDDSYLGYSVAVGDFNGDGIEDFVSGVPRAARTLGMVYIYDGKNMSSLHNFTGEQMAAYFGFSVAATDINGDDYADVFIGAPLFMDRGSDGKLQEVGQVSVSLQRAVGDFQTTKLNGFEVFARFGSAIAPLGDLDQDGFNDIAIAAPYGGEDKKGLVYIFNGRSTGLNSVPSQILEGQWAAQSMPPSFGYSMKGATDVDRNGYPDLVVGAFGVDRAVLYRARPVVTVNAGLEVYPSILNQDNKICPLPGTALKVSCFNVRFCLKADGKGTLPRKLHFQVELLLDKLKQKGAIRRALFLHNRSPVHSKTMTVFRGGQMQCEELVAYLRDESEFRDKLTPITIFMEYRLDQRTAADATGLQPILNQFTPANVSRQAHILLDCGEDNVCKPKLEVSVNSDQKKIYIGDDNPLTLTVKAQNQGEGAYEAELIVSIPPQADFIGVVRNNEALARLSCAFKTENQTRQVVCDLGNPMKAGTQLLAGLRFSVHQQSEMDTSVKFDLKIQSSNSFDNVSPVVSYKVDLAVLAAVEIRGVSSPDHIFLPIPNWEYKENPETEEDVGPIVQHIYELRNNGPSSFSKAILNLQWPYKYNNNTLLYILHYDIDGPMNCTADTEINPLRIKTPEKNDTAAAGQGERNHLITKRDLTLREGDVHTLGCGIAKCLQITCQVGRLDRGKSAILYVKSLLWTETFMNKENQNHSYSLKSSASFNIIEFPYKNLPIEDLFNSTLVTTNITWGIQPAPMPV
# T1 sequence (O54890 26-717 limits assumed): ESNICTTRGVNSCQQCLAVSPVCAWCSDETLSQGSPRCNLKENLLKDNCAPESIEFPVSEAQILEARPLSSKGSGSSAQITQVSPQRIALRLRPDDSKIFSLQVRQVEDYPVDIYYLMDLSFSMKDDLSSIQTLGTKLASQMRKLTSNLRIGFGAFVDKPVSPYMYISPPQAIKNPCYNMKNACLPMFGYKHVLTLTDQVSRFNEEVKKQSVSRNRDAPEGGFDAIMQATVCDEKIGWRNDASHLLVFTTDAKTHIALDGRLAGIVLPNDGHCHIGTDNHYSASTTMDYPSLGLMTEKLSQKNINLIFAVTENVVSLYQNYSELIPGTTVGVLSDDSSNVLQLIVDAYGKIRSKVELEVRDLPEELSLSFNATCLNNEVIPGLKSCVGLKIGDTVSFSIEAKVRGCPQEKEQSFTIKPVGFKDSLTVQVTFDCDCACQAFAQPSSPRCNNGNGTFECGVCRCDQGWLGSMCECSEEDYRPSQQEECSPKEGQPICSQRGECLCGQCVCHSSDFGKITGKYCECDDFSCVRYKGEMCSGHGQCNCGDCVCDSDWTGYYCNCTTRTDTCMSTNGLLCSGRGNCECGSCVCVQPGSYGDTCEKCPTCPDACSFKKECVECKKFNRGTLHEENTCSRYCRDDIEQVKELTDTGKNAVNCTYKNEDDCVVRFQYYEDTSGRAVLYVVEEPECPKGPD
# Experiment: Surface plasmon resonance binding to αvβ3-integrin
# Conditions: Example 2, Biacore; integrin analyte 31.25 to 125 nM; read-out: KD, binding to αvβ3-integrin receptor
# Source text: For Biacore experiments, recombinant murine (rm) CIRP was purchased from Cubasio Technology LLC (Cat #. CSB-EP613483He0), rmMFG-E8 was purchased from R&D Systems (Cat #2767-MF-050), and auß3-integrin was purchased from R&D Systems (Cat #7889-AV-050). For in vitro studies, recombinant human (rh)- and rmMFG-E8 and rmCIRP was produced by our lab as previously described (4). […] The known AA sequence of DD-2 (157 amino acids long) of murine MFG-E8 was split into ˜15 AA long sequences with a 5 AA long overlap. This portion of the peptide was designed to bind to eCIRP. The 15 AA sequences were then all tagged with three AA long, Arg-Gly-Asp (RGD), designed to bind to the integrin receptor. […] All peptides were screened in vitro for the ability to attenuate eCIRP-induced TNFα production. […]
# To examine the direct interaction between rmCIRP and rmMFG-E8, surface plasmon resonance (SPR), OpenSPR (Nicoya), was performed between rmCIRP and rmMFG-E8. rmCIRP was immobilized on carboxyl sensor and rmMFG-E8 was injected as an analyte in concentrations of 15.7 nM to 250 nM. […] To evaluate binding, the analyte was injected into flow cell-1 and flow cell-2 and increasing concentrations and real-time interaction data were analyzed by TraceDrawer (Nicoya). […]
smiles,measurement,value
"CC(C)C[C@H](NC(=O)[C@H](CC(N)=O)NC(=O)[C@H](Cc1c[nH]c2ccccc12)NC(=O)[C@@H](NC(=O)[C@H](CCCCN)NC(=O)[C@H](Cc1ccc(O)cc1)NC(=O)[C@H](CO)NC(=O)[C@H](CO)NC(=O)[C@H](CO)NC(=O)[C@H](CC(=O)O)NC(=O)CNC(=O)[C@@H](N)CCCNC(=N)N)[C@@H](C)O)C(=O)N[C@@H](CCCNC(=N)N)C(=O)N[C@@H](C)C(=O)N[C@@H](Cc1ccccc1)C(=O)NCC(=O)N[C@@H](Cc1c[nH]c2ccccc12)C(=O)N[C@@H](Cc1ccc(O)cc1)C(=O)O [MOP3, RGDSSSYKTWNLRAFGWY] (H-RGDSSSYKTWNLRAFGWY-OH; N-terminus and C-terminus assumed)",pKd,6.11
